{
  "source": "patent US20030032674A1",
  "about": "“Use of unsaturated fatty acids to treat severe inflammatory diseases” (priority 2001, published 2003)",
  "origin": "cited, not measured here",
  "key": {"[1]": {"settings": "infusion; cited from earlier work"}, "platelet aggregation": {"system": "platelet aggregation", "settings": "infusion; cited from earlier work"}, "[2]": {"system": "natural killer cell activity", "settings": "infusion; mice and humans; cited from earlier work"}},
  "data": [
    {"substance": "1,2,3-trieicosapentaenoyl-glycerol [EPA-TG]", "values": [
      {"measurement": "urinary concentration of prostaglandin I3 and thromboxane A3", "setting": "[1]", "result": "increase"},
      {"measurement": "platelet aggregation", "setting": "platelet aggregation", "result": "decrease"},
      {"measurement": "natural killer cell activity", "setting": "[2]", "result": "inhibit"}
    ]}
  ]
}
